Experimental data taken from patent publication US20110144303A1, “Biologically Active Peptidomimetic Macrocycles” (AILERON Therapeutics, Inc., priority 2008, published 2011).
Where “and” joins values, the source holds several entries; their conditions need not be identical. Identical values can stand only once. Like-named read-outs stand apart in the source and are kept apart here. Starred links: 1 amine or outer side, 2 acyl side, 3 side chain; linkers in the order of their positions; H or OH if unused. Positions of bridges follow the written chain, without caps; N, C: chain ends. Non-standard residues stand in square brackets, D forms with d. Residues, ends and D or L forms follow the SMILES beside them. ξ: configuration not given here. Nle(6-ylidene) = O=C([C@H](CCCC=[*:3])N[*:1])[*:2]; Nle = CCCC[C@H](N)C(=O)O; ξαMeC = CC(N)(CS)C(=O)O; X1 = C(=CC[*:2])C[*:1]; X2 = C(CC[*:2])C[*:1]

Experiments:
[1] = Pharmacokinetics of SP-4 and SP-54 in Rats following IV dose
Text: Table printed on a drawing sheet, Figure 19
Title: Pharmacokinetics of SP-4 and SP-54 in Rats following IV dose
The patent's description of the figure: FIG. 19 illustrates the pharmacokinetic properties of SP-4 and SP-54 peptidomimetic macrocycles in rats.
First reader's note: Pharmacokinetic parameters in rats after IV dosing; the table is printed under a concentration-time plot that is not copied.

GST-Mcl-1 = assay: Kd
Experimental: Table printed on a drawing sheet, Figure 4
The patent's description of the figure: FIG. 4 depicts binding properties to GST-Mcl-1 of SP-4 and SP-54 peptidomimetic macrocycles.
First copying reader's note: Kd values belong to the adjacent saturation binding plot (stapled peptides + GST-Mcl-1, 2 µM receptor, 1x PBS + 5 mM CHAPS, 2.5% DMSO).
Where the first naming reader finds the target: description_of_the_figure: FIG. 4 depicts binding properties to GST-Mcl-1 of SP-4 and SP-54 peptidomimetic macrocycles.

GST-Bcl-2 [2] = assay: Kd
Experimental: Table printed on a drawing sheet, Figure 5
The patent's description of the figure: FIG. 5 depicts binding properties to GST-Bcl-2 of SP-4 and SP-54 peptidomimetic macrocycles.
First copying reader's note: Kd values belong to the plot beside the table, titled 'Saturation Binding Curves vs. 2 µM Receptor, 1x PBS + 5 mM CHAPS, 2.5% DMSO', with GST-Bcl-2 as the receptor.
Where the first naming reader finds the target: description_of_the_figure: FIG. 5 depicts binding properties to GST-Bcl-2 of SP-4 and SP-54 peptidomimetic macrocycles.

[3] = Pepsin Stability: (E/S 1:50)
Text: Table printed on a drawing sheet, Figure 12
(§1) Title: Pepsin Stability: (E/S 1:50)
The patent's description of the figure: FIG. 12 describes the comparative pepsin stability of SP-1 and SP-35 peptidomimetic macrocycles of the invention.
First reader's note: The title is printed over the plot below the table; the rate constants and half-lives describe degradation by pepsin, and the time points used are on the plot's Time (min) axis.

[4] = Pharmacokinetics of SP-1 and SP-35 in Rat following IV dose
Text: Table printed on a drawing sheet, Figure 18
Title: Pharmacokinetics of SP-1 and SP-35 in Rat following IV dose
The patent's description of the figure: FIG. 18 illustrates the pharmacokinetic properties of SP-1 and SP-35 peptidomimetic macrocycles in rats.
First reader's note: The title stands over the plot above the table and applies to both: rat, IV dose.

GST-Bcl-XL = target: T1, GST-Bcl-XL (Homo sapiens, UniProt Q07817); assay: Kd
T1 construct: GST
Experimental: Table printed on a drawing sheet, Figure 7
The patent's description of the figure: FIG. 7 depicts binding properties to GST-Bcl-XL of SP-1 and SP-35 peptidomimetic macrocycles.
First copying reader's note: The table stands beside a saturation binding plot (2 µM receptor, 1x PBS + 5 mM CHAPS, 2.5% DMSO) whose legend names GST-Bcl-xL as the receptor for both peptides.
Where the first naming reader finds the target: description_of_the_figure: FIG. 7 depicts binding properties to GST-Bcl-XL of SP-1 and SP-35 peptidomimetic macrocycles.

GST-Bcl-2 [5] = assay: Kd; remark: listed apart in the source
Experimental: Table printed on a drawing sheet, Figure 8
The patent's description of the figure: FIG. 8 depicts binding properties to GST-Bcl-2 of SP-1 and SP-35 peptidomimetic macrocycles.
First copying reader's note: The Kd values belong to the plot beside the table, titled 'Saturation Binding Curves vs. 2 µM Receptor, 1x PBS + 5 mM CHAPS, 2.5% DMSO', whose legend names the receptor as GST-Bcl-2.
Where the first naming reader finds the target: description_of_the_figure: FIG. 8 depicts binding properties to GST-Bcl-2 of SP-1 and SP-35 peptidomimetic macrocycles.

[6] = Pharmacokinetics of SP-43 and SP-42 in Rat following IV dose; details: in vivo
Text: Table printed on a drawing sheet, Figure 20
Title: Pharmacokinetics of SP-43 and SP-42 in Rat following IV dose
The patent's description of the figure: FIG. 20 illustrates the pharmacokinetic properties of SP-42 and SP-43 peptidomimetic macrocycles in rats.
First reader's note: Pharmacokinetic parameters in rat after an IV dose; the table stands under a concentration-time plot that is not copied.

[7] = Pepsin Stability: (E/S 1:50); remark: listed apart in the source
Text: Table printed on a drawing sheet, Figure 14
as §1
The patent's description of the figure: FIG. 14 describes the comparative pepsin stability of SP-33 and SP-34 peptidomimetic macrocycles of the invention.
First reader's note: The title is the heading of the plot printed under the table; the table gives the rate constants and half-lives of the pepsin digestion, fitted over the named time points.

[8] = Pepsin Stability: (E/S 1:50); remark: listed apart in the source
Text: Table printed on a drawing sheet, Figure 13
as §1
The patent's description of the figure: FIG. 13 describes the comparative pepsin stability of SP-36 and SP-37 peptidomimetic macrocycles of the invention.
First reader's note: Each peptide appears twice (duplicate runs); the title is printed between the table and the plot of the same figure, and NC/NA are not defined on the sheet.

T1 sequence (Q07817 whole entry, looked up): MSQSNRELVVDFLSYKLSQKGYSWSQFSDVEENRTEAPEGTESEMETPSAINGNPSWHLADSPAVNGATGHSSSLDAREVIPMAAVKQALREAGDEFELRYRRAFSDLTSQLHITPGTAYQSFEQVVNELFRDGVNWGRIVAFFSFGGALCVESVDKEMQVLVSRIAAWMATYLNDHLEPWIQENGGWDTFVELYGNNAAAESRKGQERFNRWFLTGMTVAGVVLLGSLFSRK

CC[C@H](C)[C@H](NC(C)=O)C(=O)N[C@@H](Cc1c[nH]c2ccccc12)C(=O)N[C@H](C(=O)N[C@@H](C)C(=O)N[C@@H](CCC(N)=O)C(=O)N[C@@H](CCC(=O)O)C(=O)N[C@@H](CC(C)C)C(=O)N[C@@H](CCCNC(=N)N)C(=O)N[C@H]1CCCC=CCCC[C@@H](C(=O)N[C@@H](Cc2ccccc2)C(=O)N[C@@H](CC(N)=O)C(=O)N[C@@H](C)C(=O)N[C@@H](Cc2ccc(O)cc2)C(=O)N[C@@H](Cc2ccc(O)cc2)C(=O)N[C@@H](C)C(=O)N[C@@H](CCCNC(=N)N)C(=O)N[C@@H](CCCNC(=N)N)C(N)=O)NC(=O)[C@H](CC(=O)O)NC(=O)CNC(=O)[C@H]([C@@H](C)CC)NC1=O)[C@@H](C)CC [SP-54, Ac-IWIAQELR#IGD#FNAYYARR-NH2]
AUC,inf [1]: 12.7 µg·h/mL
Cl [1]: 0.241 L/h/kg
Vss [1]: 0.126 L/kg
Vz [1]: 1.206 L/kg
Cmax ([1]; rat, in vivo, iv): 27.1 µg/mL
MRT ([1]; rat, in vivo, iv): 31.2 min
half-life ([1]; rat, in vivo, iv): 60 min
Kd (GST-Mcl-1): 0.022 µM
Kd (GST-Bcl-2 [2]): 0.097 µM

CCCC[C@H](NC(=O)[C@@H]1CCCC=CCCC[C@H](NC(=O)[C@H](C)NC(=O)[C@H](CC(C)C)NC(=O)[C@H](Cc2c[nH]cn2)NC(=O)[C@H](CCCNC(=N)N)NC(=O)[C@H](C)NC(=O)[C@@H](NC(=O)[C@H](CC(N)=O)NC(=O)[C@H](CCCNC(=N)N)NC(=O)[C@@H](NC(=O)[C@@H](NC(=O)[C@H](CC(=O)O)NC(C)=O)[C@@H](C)CC)[C@@H](C)CC)[C@@H](C)CC)C(=O)N[C@@H](C(C)C)C(=O)NCC(=O)N[C@@H](CC(=O)O)C(=O)N1)C(=O)N[C@@H](CC(=O)O)C(=O)N[C@@H](CCCNC(=N)N)C(=O)N[C@@H](CO)C(=O)N[C@H](C(N)=O)[C@@H](C)CC [SP-35, Ac-DIIRNIARHLA#VGD#NleDRSI-NH2] (Ac-DIIRNIARHLA[Nle(6-ylidene)]VGD[Nle(6-ylidene)][Nle]DRSI-NH2; staple 12-16)
K1 min^-1 [3]: 0.15 min⁻¹
K2 min^-1 [3]: 0.0430 min⁻¹
half-life^1 [3]: 4.6 min
half-life^2 [3]: 16 min
AUC,inf [4]: 15.4 µg·h/mL
Cl [4]: 0.195 L/h/kg
Vss [4]: 0.132 L/kg
Vz [4]: 2.025 L/kg
Cmax ([4]; rat, in vivo, iv): 32.2 µg/mL
MRT ([4]; rat, in vivo, iv): 40.8 min
half-life ([4]; rat, in vivo, iv): 126 min
Kd (GST-Bcl-XL): > 10 µM
Kd (GST-Bcl-2 [5]): > 10 µM

CC(=O)N[C@@H](CCC(N)=O)C(=O)N[C@@H](CO)C(=O)N[C@@H](CCC(N)=O)C(=O)N[C@@H](CCC(N)=O)C(=O)N[C@H](C(=O)N[C@@H](Cc1ccccc1)C(=O)N[C@@H]1CCCCCCC=CCCC[C@@H](C(=O)N[C@@H](CCC(N)=O)C(=O)N[C@@H](CC(N)=O)C(N)=O)NC(=O)[C@H](CC(C)C)NC(=O)[C@H](CC(C)C)NC(=O)[C@H](CCCNC(=N)N)NC(=O)[C@H](Cc2c[nH]c3ccccc23)NC(=O)[C@H](CC(C)C)NC(=O)[C@H](CC(N)=O)NC1=O)[C@@H](C)O [SP-42, Ac-QSQQTF#r8NLWRLL#QN-NH2]
Cmax [6]: 41.2 µg/mL
MRT [6]: 66 min

CCCC[C@H](NC(=O)[C@@H]1CSCCCCSC[C@H](NC(=O)[C@H](C)NC(=O)[C@H](CC(C)C)NC(=O)[C@H](Cc2c[nH]cn2)NC(=O)[C@H](CCCNC(=N)N)NC(=O)[C@H](C)NC(=O)[C@@H](NC(=O)[C@H](CC(N)=O)NC(=O)[C@H](CCCNC(=N)N)NC(=O)[C@@H](NC(=O)[C@@H](NC(=O)[C@H](CC(=O)O)NC(C)=O)[C@@H](C)CC)[C@@H](C)CC)[C@@H](C)CC)C(=O)N[C@@H](C(C)C)C(=O)NCC(=O)N[C@@H](CC(=O)O)C(=O)N1)C(=O)N[C@@H](CC(=O)O)C(=O)N[C@@H](CCCNC(=N)N)C(=O)N[C@@H](CO)C(=O)N[C@H](C(N)=O)[C@@H](C)CC [SP-33, Ac-DIIRNIARHLA#c4VGD#c4NleDRSI-NH2] (Ac-DIIRNIARHLACVGDC[Nle]DRSI-NH2; linker 12-16 via X2)
K1 min^-1 [7]: 0.054 min⁻¹
K2 min^-1 [7]: 0.0046 min⁻¹
half-life^1 [7]: 13 min
half-life^2 [7]: 150 min

CCCC[C@H](NC(=O)C1(C)CSCCCCSCC(C)(NC(=O)[C@H](C)NC(=O)[C@H](CC(C)C)NC(=O)[C@H](Cc2c[nH]cn2)NC(=O)[C@H](CCCNC(=N)N)NC(=O)[C@H](C)NC(=O)[C@@H](NC(=O)[C@H](CC(N)=O)NC(=O)[C@H](CCCNC(=N)N)NC(=O)[C@@H](NC(=O)[C@@H](NC(=O)[C@H](CC(=O)O)NC(C)=O)[C@@H](C)CC)[C@@H](C)CC)[C@@H](C)CC)C(=O)N[C@@H](C(C)C)C(=O)NCC(=O)N[C@@H](CC(=O)O)C(=O)N1)C(=O)N[C@@H](CC(=O)O)C(=O)N[C@@H](CCCNC(=N)N)C(=O)N[C@@H](CO)C(=O)N[C@H](C(N)=O)[C@@H](C)CC (stereo partly shown) [SP-34, Ac-DIIRNIARHLA$c4VGD$c4NleDRSI-NH2] (Ac-DIIRNIARHLA[ξαMeC]VGD[ξαMeC][Nle]DRSI-NH2; linker 12-16 via X2)
K1 min^-1 [7]: 0.0019 min⁻¹
half-life^1 [7]: 360 min

CCCC[C@H](NC(=O)[C@@H]1CSCC=CCSC[C@H](NC(=O)[C@H](C)NC(=O)[C@H](CC(C)C)NC(=O)[C@H](Cc2c[nH]cn2)NC(=O)[C@H](CCCNC(=N)N)NC(=O)[C@H](C)NC(=O)[C@@H](NC(=O)[C@H](CC(N)=O)NC(=O)[C@H](CCCNC(=N)N)NC(=O)[C@@H](NC(=O)[C@@H](NC(=O)[C@H](CC(=O)O)NC(C)=O)[C@@H](C)CC)[C@@H](C)CC)[C@@H](C)CC)C(=O)N[C@@H](C(C)C)C(=O)NCC(=O)N[C@@H](CC(=O)O)C(=O)N1)C(=O)N[C@@H](CC(=O)O)C(=O)N[C@@H](CCCNC(=N)N)C(=O)N[C@@H](CO)C(=O)N[C@H](C(N)=O)[C@@H](C)CC [SP-36, Ac-DIIRNIARHLA#cVGD#cNleDRSI-NH2] (Ac-DIIRNIARHLACVGDC[Nle]DRSI-NH2; linker 12-16 via X1)
K1 min^-1 [8]: 0.095 min⁻¹ and 0.082 min⁻¹
K2 min^-1 [8]: 0.0290 min⁻¹ and 0.024 min⁻¹
half-life^1 [8]: 7.3 min and 8.5 min
half-life^2 [8]: 24 min and 29 min
